The values below are quoted from earlier work in patent US6399785B1, “Multiply-substituted fullerenes” (C-Sixty, Inc., priority 1995, dated 2002).

Read-outs that look alike come from different tables or passages of the source.

For data set [1], the system named is HIV. The conditions noted are these: H9 cells chronically infected with HIV, in vitro.
Data set [2] concerns HIV. To be noted: human PBMC acutely infected with HIV, in vitro.

Regarding “bis (monosuccinimide) derivative of p,p′-bis (2-aminoethyl) diphenyl C60”, the antiviral activity result in the data set on HIV [1] and with HIV [2] was “showed antiviral activity” throughout.
